Measured values reported in a melting point compilation (Tetko et al.; mined from patent text by program, amines drawn as free bases though some values may be those of a salt).

Compared with `COc1cc2c(cc1Nc1ncc(Cl)c(Nc3ccc(N(C)C)cc3OC)n1)CCN(CC(=O)N(C)C)CC2`, `COc1cc2c(cc1OC)CN(CCc1ccc([N+](=O)[O-])cc1)CC2` is higher in melting point: 69 to 83 °C for the first, 118 to 119 °C for the second.

First: C#CC1(O)C=CC2C3CCC4=CC(=O)CCC4C3C(Cl)CC21CC (centres undefined)
Second: COc1cccc2oc(C(=O)C34CC5CC(CC(C5)C3)C4)cc12
The melting point of the first is higher: 202 °C for the first, 96 to 98 °C for the second.

First: O=C(Cl)c1ccccc1SSc1ccccc1C(=O)Cl
Second: Cc1cc(Oc2ccccc2)ccc1C(=O)CBr
The melting point of the first is higher: 145 to 148 °C for the first, 60 to 61 °C for the second.

First: CC(=O)NCC1CN(c2ccc(N3CCN(C(=O)COC(=O)CN4CCN(C)CC4)CC3)c(F)c2)C(=O)O1 (centres undefined)
Second: CC(=O)c1ccc(N2CCN(C(=O)c3c(Cl)ccc([N+](=O)[O-])c3Cl)CC2)c(F)c1
The melting point of the first is lower: 128 to 129 °C for the first, 209 to 211 °C for the second.

Compared with `O=S1(=O)N=CN(C2CC2)c2cc(I)ccc21`, `CC(NC(=O)c1cc(Cl)ccc1N)C1CC1` (centres undefined) is lower in melting point: 304 to 307 °C for the first, 135 °C for the second.

First: O=C(O)CCCCc1nc2c(F)c(F)cc(F)c2s1
Second: O=C(O)CCCC#CCN1C(=O)c2ccccc2C1=O
The melting point of the first is higher: 122 to 124 °C for the first, 120 to 122 °C for the second.

Compared with `COc1cc(C(=O)N2CCN(C(=O)OC(C)(C)C)C(C(=O)N(C)C)C2)cc(OC)c1OC` (centres undefined), `CC(C)(C)OC(=O)N1CCNC(C(=O)O)C1` (centres undefined) is higher in melting point: 146 to 147 °C for the first, 226 to 229 °C for the second.

First: COc1cc(Br)cc([N+](=O)[O-])c1OCc1ccccc1
Second: COc1cc([N+](=O)[O-])c2nccc(C)c2c1OCCCCCc1ccccc1
The melting point of the first is higher: 74 to 76 °C for the first, 47 to 50 °C for the second.

First: CCCCCCCCCCCC(=O)OC1CC(c2ccccc2)NC(c2ccccc2)C1 (centres undefined)
Second: CCN(CC)CCN1C(=O)Nc2ncccc2C1c1ccccc1 (centres undefined)
The melting point of the first is lower: 40 to 42 °C for the first, 160 to 162 °C for the second.

First: CCCCCCCCC(OC(C)=O)C1=CC(=O)OC1O (centres undefined)
Second: CCCCCCCCCCCCOc1cc(N)c(OCCCCCCCCCCCC)cc1N
The melting point of the first is lower: 54 to 55 °C for the first, 75 to 76 °C for the second.

First: COc1cc(-c2cccc(Cl)c2)c2cc(C(O)(c3ccc(Cl)cc3)c3nncn3C)ccc2n1 (centres undefined)
Second: COc1cc2c(cc1OC)C(c1cccc(Cl)c1)=NNC(C)C2 (centres undefined)
The melting point of the first is higher: 155 °C for the first, 116 to 120 °C for the second.

Compared with `CC(=O)Nc1ccc(-c2ccccc2)cc1[N+](=O)[O-]`, `O=C(O)c1ccc2oc([N+](=O)[O-])c(-c3ccccc3)c2c1` is higher in melting point: 128 to 131 °C for the first, 271 to 273 °C for the second.

Compared with `O=C(O)C(O)=CC(=O)c1ccccc1`, `O=C(O)c1ccc(C(=O)O)c2c(C(O)=Nc3ccccc3)ccc(C(=O)O)c12` is higher in melting point: 155 to 158 °C for the first, over 300 °C for the second.

`O=c1c2c(c1=O)NCCCN2` and `COC(=O)c1cccn1-c1cc2[nH]c(=O)c(=O)[nH]c2cc1Cl` cannot be ordered by melting point: 335 °C for the first, over 260 °C for the second.

Compared with `CC1(C)OCc2cc([C@@H](O)CN[C@H]3CCc4ccc(O)cc4C3)ccc2O1`, `Cc1cc(C)cc(/C=C/c2ccc(O)cc2)c1` is lower in melting point: 156 to 158 °C for the first, 142 °C for the second.

Compared with `CCCNC(=O)COC1C(O)C(CO)OC(Oc2ccc(N)cc2)C1O` (centres undefined), `CCOC(=S)C(C)Cc1ccc(OCC(=O)O)cc1` (centres undefined) is lower in melting point: 154 °C for the first, 77 to 78 °C for the second.

First: CCOC(=O)C1=C(NC(=O)Nc2cc(C(=O)OC(C)C)c(F)cc2F)CCC1
Second: CCOC(=O)C(SC)C(=O)Nc1ccc(Br)cc1C (centres undefined)
The melting point of the first is higher: 149 to 151 °C for the first, 85 to 88 °C for the second.

First: CCC(CC)C(=O)Nc1nc(C)co1
Second: COC(=O)COc1nsc2nc(C)cc(C)c12
The melting point of the first is higher: 106 °C for the first, 89 to 91 °C for the second.

First: O=C(Cc1ccc(-c2ccc(C(CC3CCOCC3)c3ccc(S(=O)(=O)C4CC4)cc3)[nH]2)nc1)N1CCC1 (centres undefined)
Second: COc1cc(C(=O)NS(=O)(=O)c2ccccc2Cl)ccc1Cn1cc(/C=C/C(=O)N2CCCC2)c2ccc(/C=C/C(=O)N3CCCC3)cc21
The melting point of the first is lower: 94 to 98 °C for the first, 291 to 293 °C for the second.

First: COC(=O)c1cc(-c2ccc(=O)n(C(C)C)n2)c(-c2ccccc2)nc1OCC(N)=O
Second: COc1ccc(-c2ccnc3c(C(=O)c4cccs4)cnn23)cc1NC(=O)OC(C)C
The melting point of the first is lower: 183 to 184 °C for the first, 193 to 195 °C for the second.

First: C=C(c1cc(F)ccc1OCCCC)n1ccnc1
Second: CCCn1c(=O)c2c(C(=O)OCCN(C)C)ncn2c2ccccc21
The melting point of the first is lower: 107 to 109 °C for the first, 115 to 118 °C for the second.

Compared with `N=C1N(c2ccccc2)CCN1c1ccccc1[N+](=O)[O-]`, `COC(=O)c1c(C)nc(C)c(C(=O)O)c1-c1ccccc1[N+](=O)[O-]` is lower in melting point: 257 to 259 °C for the first, 232 to 233 °C for the second.

First: Cc1ccc(C(=O)Nc2ccc(C[C@H](NC(=O)Nc3ccccc3S(=O)(=O)c3ccccc3)C(=O)O)cc2)c(Cl)n1
Second: CC(C)(C)c1ccc(C(=O)Nc2cc(OCCCO/N=C/c3cn(Cc4ccccc4)c4ccccc34)ccc2C(=O)O)cc1
The melting point of the first is higher: 210 °C for the first, 181 to 182 °C for the second.

First: Cc1c(CNCC(C)(C)O)n(C)c2c(C)c(NC(=O)c3ccc(OC[C@@H]4CCCO4)cc3F)ccc12
Second: COc1cccc(C2c3c(C)c(NC(=O)CC(C)(C)C)c(C)c(C)c3OC2(C)C)c1 (centres undefined)
The melting point of the first is lower: 131 to 132 °C for the first, 166 to 167 °C for the second.

Compared with `NCCCOc1ccc(OCCCN)cc1`, `Cc1cc2c(OCc3ccc(C#N)cc3)cccc2o1` is higher in melting point: 73 to 74 °C for the first, 84 to 85 °C for the second.

Compared with `COc1ccccc1NC(=O)Nc1nc(Nc2ccccc2-c2ccccc2)nc(N(CCC(=O)O)CCc2ccccn2)n1`, `CC(C)CC(NC(=O)c1ccccc1)C(=O)NC(CCCN(C(=N)NC(=O)OCc1ccccc1)C(=O)OCc1ccccc1)C(=O)Oc1cccc2ccccc12` (centres undefined) is lower in melting point: 225 to 227 °C for the first, 178 to 187 °C for the second.

`COc1cc(OCc2ccccc2)ccc1/C=C/c1cc(/C=C/c2ccc3cc[nH]c3c2)[nH]n1` and `Fc1cccc(C=Cc2nccc3ccccc23)c1` cannot be ordered by melting point: 86 to 91 °C for the first, 89 to 99 °C for the second.

First: NS(=O)(=O)c1cnc(-c2cn(-c3cc(C(F)(F)F)cc(-c4ccc(C(F)(F)F)cc4)n3)cn2)s1
Second: FC(F)(F)Oc1ccc(Nc2cc(-c3ccccc3)ncn2)cc1
The melting point of the first is higher: over 266 °C for the first, 245 to 247 °C for the second.

First: O=C(Nc1ccccc1C(=O)c1ccc(OC(F)(F)F)cc1)c1ccncc1
Second: O=C(C=Cc1ccccc1)c1cccc(NC(=O)c2ccn3c2CSC3c2cccnc2)c1 (centres undefined)
The melting point of the first is lower: 112 to 114 °C for the first, 190 °C for the second.

Compared with `CCCCCCCCCCCCc1csc(-c2c(Cl)c(Cl)c(-c3cc(CCCCCCCCCCCC)cs3)c3nsnc23)c1`, `CCCn1c(=O)cc(S(=O)(=O)CCC)n(Cc2ccc(-c3ccccc3-c3nnn[nH]3)cc2)c1=O` is higher in melting point: 79 to 80 °C for the first, 128 to 135 °C for the second.

First: COc1cc(OC)cc(Oc2ccc(C(=O)N(C(C)C)C3CCCCC3)cc2)c1
Second: COC(=O)c1cc(S(C)(=O)=O)c(Nc2ccc(S(F)(F)(F)(F)F)cc2)cc1C
The melting point of the first is higher: 140 °C for the first, 106 to 109 °C for the second.

First: CC(=O)C=Cc1ccc2c(c1)Cc1ccccc1-2
Second: CC(=O)Oc1ccc(C=CC(=O)O)cc1C=O
The melting point of the first is lower: 146 to 148 °C for the first, 205 to 207 °C for the second.

First: CN1CC=C(c2c[nH]c3ccc(CCNS(C)(=O)=O)cc23)CC1
Second: Cn1nc(CNS(C)(=O)=O)nc1NCCCOc1cccc(CN2CCCCC2)c1
The melting point of the first is higher: 170 to 172 °C for the first, 117 to 118 °C for the second.

First: COC(=O)C1=CCC(=C2CCC3=C(N=C(C(C)C)C(C(C)C)N3)C2=O)C=C1 (centres undefined)
Second: COc1cc2c(c3c1OC(C)(C)C3)C(c1cccc(NC(=O)CS(C)=O)c1)=NC(C)(C)C2 (centres undefined)
The melting point of the first is lower: 100 to 102 °C for the first, 198 to 201 °C for the second.

First: Oc1ccccc1-c1nc2sc(-c3ccccc3O)nc2s1
Second: CN1c2c(occ(CO)c2=O)-c2ccccc2S1(=O)=O
The melting point of the first is higher: 300 °C for the first, 201 to 205 °C for the second.

Compared with `COCCCN(c1nc(Cl)nc(N(CCCOC)C2CC(C)(C)NC(C)(C)C2)n1)C1CC(C)(C)NC(C)(C)C1`, `CCN(CC)c1nc(Cc2ccc(OC)c(OC)c2)nc2sc(C#N)c(C)c12` is lower in melting point: 160 to 161 °C for the first, 107 to 109 °C for the second.

First: COC(=O)[C@H](CO)NC(=O)[C@H](Cc1ccccc1)NC(=O)OC(C)(C)C
Second: CCC[C@H](NC(=O)/C=C/S(=O)(=O)c1ccccc1)C(=S)OC
The melting point of the first is lower: 90 to 93 °C for the first, 131 to 132 °C for the second.

First: CCOCCn1c(N2CCCN(CCC3(c4ccncc4)CCN(C(=O)c4cc(OC)c(OC)c(OC)c4)C3)CC2)nc2ccccc21 (centres undefined)
Second: O=C(Cc1c(-c2cccnc2)c2cc(CN3CCN(c4ccccc4)CC3)c(Cl)cc2oc1=O)Nc1ccc(F)cc1C(F)(F)F
The melting point of the first is lower: 85 to 95 °C for the first, 202 to 205 °C for the second.

First: CC(=O)C(C)(C)C(C=C(Cl)C(F)(F)F)OS(C)(=O)=O (centres undefined)
Second: C[C@@H]1Cc2ccsc2[C@H](C)N1CCNC(=O)c1ccc(C(F)(F)F)cc1 (relative stereo)
The melting point of the first is lower: 50 to 52 °C for the first, 88 to 91 °C for the second.

First: O=C(O)C(=Cc1cccnc1)c1ccc(Cl)cc1Cl
Second: O=C(Nc1ccc(Sc2c(O)c3c(Cl)cc(Cl)cc3[nH]c2=O)cc1)c1ccco1
The melting point of the first is lower: 208 to 211 °C for the first, 296 to 300 °C for the second.

First: CC(C)(C)c1cc(C=Cc2cc(C=Cc3cc(C(C)(C)C)cc(C(C)(C)C)c3)cc(CBr)c2)cc(C(C)(C)C)c1
Second: CN(c1cccc2cc(C(=O)NCC(C)(C#N)SCc3ccccc3)[nH]c12)S(=O)(=O)c1cccs1 (centres undefined)
The melting point of the first is higher: 222 to 223 °C for the first, 181 to 182 °C for the second.

First: Fc1c(F)c(F)c(CSc2ncccn2)c(F)c1F
Second: COC(=O)c1nc(-c2ccc(Cl)cc2F)nc(N)c1Br
The melting point of the first is lower: 89 to 92 °C for the first, 186 to 188 °C for the second.

First: CC(=O)NCCc1ccc(NC(=O)C=C2CC(C(=O)OCc3ccccc3)Nc3cc(Cl)cc(Cl)c32)cc1 (racemic)
Second: O=C(Oc1ccccc1)N1CC[C@@H](c2ccc(F)cc2)[C@H](CO)C1 (relative stereo)
The melting point of the first is higher: 235 to 238 °C for the first, 129 to 131 °C for the second.

Compared with `C=CCOC(=O)C1=C(C)NC(C)=C(C(=O)OC)C1c1cc(Br)c(OC)c(OC)c1` (centres undefined), `CC(=O)OC1CSC(Oc2cnc(Cl)c(Cl)c2)C(OC(C)=O)C1OC(C)=O` (centres undefined) is higher in melting point: 123 to 124 °C for the first, 128 °C for the second.

Compared with `O=C(c1ccc(F)c(Cl)c1)N1CCC(F)(CNCc2ccc(CF)cn2)CC1`, `CCCCc1ccc(-c2coc(C(=O)O)cc2=O)cc1` is higher in melting point: 157 to 159 °C for the first, 193 to 195 °C for the second.

Compared with `CCOc1ccc(OCC)c(C[C@@H](C(=O)[C@H](Cc2cc(OCC)ccc2OCC)N2C(=O)c3ccccc3C2=O)N2C(=O)c3ccccc3C2=O)c1`, `Cn1ncnc1COc1nn2c(-c3ccc(F)cc3)nncc2c1C(C)(C)C` is higher in melting point: 92 to 93 °C for the first, 197 °C for the second.

Compared with `COC1CC(C)(C)C(O)C(OC(=O)c2ccccc2)C=C1C` (centres undefined), `N#CSc1nc(Cl)ncc1I` is higher in melting point: 98 to 99 °C for the first, 185 to 186 °C for the second.
